According to patent US20180244653A1, “SELECTIVE ALPHA-7 NICOTINIC RECEPTOR AGONISTS AND METHODS FOR MAKING AND USING THEM” (THE REGENTS OF THE UNIVERSITY OF CALIFORNIA, priority 2015, published 2018):
Entries after “also recorded” stand apart in the source; their conditions may differ.

Experiments:
[1] = test system: physiologically induced amnesia mice; experiment: ORT time delay with MLA pretreatment (mechanism of action); assay type: in vivo; conditions: MLA 3 mg/kg 5 min before test compound 10 μmol/kg
Method: Methyllycaconitine (MLA) was injected to block the α7-nAChR agonist response. The ORT in natural memory loss mice described above was the study model. […] Each mouse was allowed to explore an open field apparatus for 5 min in a habituation phase. After 24 hours, MLA (3 mg/kg) was injected 5 min before injection of test compounds. After 1 h of injected test compounds, each mouse explored 2 identical objects in the sample phase for 5 min. On the next day, one of the objects was changed to a new one and the mouse was allowed to explore these objects for 5 min. The exploration time of these objects was recorded.
FIG. 30 illustrates discrimination index (TN−TF/TN+TF) of each compound in the test phase of ORT for proving mechanism of action.
For dose finding protocol, the mice were randomly divided into different treatment groups, a control group receiving a vehicle and tested groups receiving PNU-282987 at 3, 10 mg/kg, and IND8, QND8 for 10, 25 μmol/kg, single dose. They were allowed to freely explore the open field apparatus for 5 min for habituation in a day before the experiment (day 1). On the test day (day 2), the test compound was injected 1 h before the sample phase. In this phase, mice were placed in the apparatus to explore two identical objects. On the next day (day 3), one object was changed to a new one and mice were allowed to explore these objects for 5 min in the test phase. […] The exploration time of each object was recorded if the nose of mouse came within 3 cm or touched the objects. The discrimination index (DI) was calculated by using (TN−TF)/(TN+TF); TN and TF represented exploration time of new and familiar objects, respectively.

5HT3A receptors = target: T1, 5HT3A receptors (Mus musculus, UniProt P23979); experiment: FRET functional assay (agonist/antagonist) using LGIC-CNiFERs; assay type: cell-based; conditions: for EC50: * partial agonist, read-out: Agonist EC50 ± SD, 5HT3A; for Functional properties at 5HT3A receptors (agonist / antagonist, type): functional screening and characterization
T1 construct: expressed in transfected cells; host or cells: HEK293 cells co-expressing TN-XXL
T1 sequence (P23979 24-489): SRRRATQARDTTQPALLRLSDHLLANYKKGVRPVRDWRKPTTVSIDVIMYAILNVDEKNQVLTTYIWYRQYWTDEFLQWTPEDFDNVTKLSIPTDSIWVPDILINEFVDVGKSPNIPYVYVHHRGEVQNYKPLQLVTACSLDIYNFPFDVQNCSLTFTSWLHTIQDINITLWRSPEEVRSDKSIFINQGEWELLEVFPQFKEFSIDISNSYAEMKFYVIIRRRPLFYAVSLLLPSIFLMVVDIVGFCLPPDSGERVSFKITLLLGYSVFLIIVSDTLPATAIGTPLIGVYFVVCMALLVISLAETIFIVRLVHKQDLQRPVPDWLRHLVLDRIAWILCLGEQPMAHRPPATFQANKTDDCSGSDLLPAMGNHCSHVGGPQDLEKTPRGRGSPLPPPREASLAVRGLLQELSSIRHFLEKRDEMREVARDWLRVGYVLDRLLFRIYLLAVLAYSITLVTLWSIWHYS

[2] = test system: scopolamine-induced amnesic mice; experiment: Water maze test; assay type: in vivo; conditions: i.p.; IND8 25 and 50 μmol/kg, QND8 25 μmol/kg
Method: The water maze test, a model for spatial learning and reference memory, related to function in the hippocampus, was also used as a study model in which mice locate a hidden platform after training session. Mice were trained to locate a hidden platform until a steady state measured by a shortened escape latency time was reached.
The average swimming time in a target quadrant where the platform had previously been placed was measured in the test day, day 8 (FIG. 25).
FIG. 25 illustrates the average swimming time in the target quadrant of water maze test. Data are presented in means±SE. IND8, QND8, PNU-282987, vehicle (15% Tween80, SH) and tacrine (TC) were injected 1 h and scopolamine (SC) 30 min before testing, respectively.
A black circular tank (diameter 70 cm; height 28 cm) was divided into 4 quadrants with a removable escape platform (6×7.5×14 cm) centered in a target quadrant. The tank was filled with water to 15 cm height and the platform was located 1 cm below the water surface.
Mice were trained from 5-7 days to get the steady state of escape latency. During day 1 to 5, each mouse was trained to swim from each quadrant with 1 min maximum time and allowed to stay on the platform for 10 sec. The mouse is placed on the platform for 10 s if it cannot find the hidden platform within 1 min. The escape latency time from each quadrant was measured. […] The probe test began when the escape latency time reached the steady state. The platform was removed and time spent in the target quadrant was measured. On the next day, all conditions were the same as probe test, but the platform was brought back to remind the mice of the target quadrant location. All mice were injected with test compounds 1 h and scopolamine 30 min before testing. The swimming time in the target quadrant was measured.

[3] = >10 = did not pass initial screen

SMILES	Cognitive enhancement after MLA pretreatment, ORT time delay [1]	5HT3A agonistic properties relative to α7-nAChR agonistic effect (5HT3A receptors)	EC50 (5HT3A receptors; [3])	Functional properties at 5HT3A receptors (agonist / antagonist, type) (5HT3A receptors)	Time in target quadrant, water maze vs scopolamine-treated group [2]	Kd (5HT3A receptors; Antagonist KA ± SD, 5HT3A, competitive antagonist (^C), >10 = did not pass initial screen, vs 5-HT)
c1cc2cc(-c3cn(C4CN5CCC4CC5)nn3)ccc2[nH]1 (centres unmarked) [IND8, 5-((Quinuclid-3-yl)-1H-1,2,3-triazol-4-yl)-1H-indole]	complete abolition of the cognitive enhancement; also recorded: abolished by MLA	seven fold lower	0.21 µM	agonistic properties; also recorded: partial agonist	significantly spent more time than amnesia group	–
O=C(N[C@H]1CN2CCC1CC2)c1ccc(Cl)cc1 [PNU-282987, reference compound]	abolished by MLA	–	–	–	–	1.2 µM
Oc1ccc(-c2cn(C3CN4CCC3CC4)nn2)cc1 (centres unmarked) [QND8, 3-(4-hydroxyphenyl-1,2,3-triazol-1-yl) quinuclidine]	complete abolition of the cognitive enhancement; also recorded: abolished by MLA	–	0.9 ± 0.09 µM	5HT3A receptor agonist properties	significantly spent more time than amnesia group	–
